Results published in PubChem BioAssay AID1745844 (Carcinogenic Potency Database (CPDB), 2022).
Activity calls are given as the source filed them. No rule for the calls is given here.

Test system: rodent lifetime carcinogenesis bioassay, tumor incidence TD50
Experiment: carcinogenic potency in animals, long-term in vivo studies, CPDB compilation (AID 1745844)
[1] = mouse, strain B6AKF1, females, oral dosing, site: any site (literature study), lesion: several types, types named in the paper, dosed 76 weeks, study length 76 weeks
[2] = mouse, strain B6AKF1, females, oral dosing, site: liver, lesion: hepatoma, dosed 76 weeks, study length 76 weeks
[3] = mouse, strain B6AKF1, females, oral dosing, site: lung, lesion: adenoma, dosed 76 weeks, study length 76 weeks
[4] = mouse, strain B6AKF1, males, oral dosing, site: any site (literature study), lesion: several types, types named in the paper, dosed 76 weeks, study length 76 weeks
[5] = mouse, strain B6AKF1, males, oral dosing, site: liver, lesion: hepatoma, dosed 76 weeks, study length 76 weeks
[6] = mouse, strain B6AKF1, males, oral dosing, site: lung, lesion: adenoma, dosed 76 weeks, study length 76 weeks
[7] = mouse, strain B6C3F1, females, oral dosing, site: any site (literature study), lesion: several types, types named in the paper, dosed 76 weeks, study length 76 weeks
[8] = mouse, strain B6C3F1, females, oral dosing, site: liver, lesion: hepatoma, dosed 76 weeks, study length 76 weeks
[9] = mouse, strain B6C3F1, males, oral dosing, site: any site (literature study), lesion: several types, types named in the paper, dosed 76 weeks, study length 76 weeks
[10] = mouse, strain B6C3F1, males, oral dosing, site: liver, lesion: hepatoma, dosed 76 weeks, study length 76 weeks
[11] = mouse, strain B6C3F1, males, oral dosing, site: lung, lesion: adenoma, dosed 76 weeks, study length 76 weeks

## O=C1C2CC=CCC2C(=O)N1SC(Cl)(Cl)Cl (centres undefined)
[1]
  carcinogen call: negative (inactive)
[2]
  carcinogen call: negative (inactive)
[3]
  carcinogen call: negative (inactive)
[4]
  TD50: 161 mg/kg/day (inactive)
[5]
  TD50: 195 mg/kg/day (inactive)
[6]
  TD50: 3620 mg/kg/day (inactive)
mouse, strain B6C3F1, females, in feed, site: any site (literature study), lesion: several types, types named in the paper, dosed 80 weeks, study length 91 weeks
  carcinogen call: negative (inactive)
mouse, strain B6C3F1, females, in feed, site: duodenum, lesion: adenocarcinoma in adenomatous polyp, dosed 80 weeks, study length 90 weeks
  TD50: 21600 mg/kg/day
[7]
  TD50: 244 mg/kg/day (inactive)
[8]
  carcinogen call: negative (inactive)
mouse, strain B6C3F1, females, oral dosing, site: lung, lesion: several types, types named in the paper, dosed 76 weeks, study length 76 weeks
  carcinogen call: negative (inactive)
mouse, strain B6C3F1, males, in feed, site: any site (literature study), lesion: several types, types named in the paper, dosed 80 weeks, study length 91 weeks
  carcinogen call: negative (inactive)
mouse, strain B6C3F1, males, in feed, site: duodenum, lesion: adenocarcinoma in adenomatous polyp, dosed 80 weeks, study length 90 weeks
  TD50: 15100 mg/kg/day
mouse, strain B6C3F1, males, in feed, site: duodenum, lesion: adenomatous polyp, NOS or adenocarcinoma in adenomatous polyp, dosed 80 weeks, study length 90 weeks
  TD50: 7390 mg/kg/day
[9]
  TD50: 42.5 mg/kg/day (inactive)
[10]
  TD50: 86.1 mg/kg/day (inactive)
[11]
  TD50: 187 mg/kg/day (inactive)
mouse, strain Charles River CD1, females, in feed, site: small intestine, lesion: adenoma, dosed 113 weeks, study length 113 weeks
  TD50: 13300 mg/kg/day
mouse, strain Charles River CD1, females, in feed, site: small intestine, lesion: carcinoma, dosed 113 weeks, study length 113 weeks
  TD50: 2110 mg/kg/day
mouse, strain Charles River CD1, females, in feed, site: small intestine, lesion: several types, types named in the paper, dosed 113 weeks, study length 113 weeks
  TD50: 1740 mg/kg/day
mouse, strain Charles River CD1, males, in feed, site: small intestine, lesion: adenoma, dosed 113 weeks, study length 113 weeks
  TD50: 8280 mg/kg/day
mouse, strain Charles River CD1, males, in feed, site: small intestine, lesion: carcinoma, dosed 113 weeks, study length 113 weeks
  TD50: 3500 mg/kg/day
mouse, strain Charles River CD1, males, in feed, site: small intestine, lesion: several types, types named in the paper, dosed 113 weeks, study length 113 weeks
  TD50: 2690 mg/kg/day
rat, strain Charles River CD (Sprague-Dawley), females, in feed, site: kidney, lesion: several types, types named in the paper, dosed 104 weeks, study length 104 weeks
  TD50: 17900 mg/kg/day
rat, strain Charles River CD (Sprague-Dawley), females, in feed, site: kidney, lesion: tubule carcinoma, dosed 104 weeks, study length 104 weeks
  TD50: 17900 mg/kg/day
rat, strain Charles River CD (Sprague-Dawley), males, in feed, site: kidney, lesion: several types, types named in the paper, dosed 104 weeks, study length 104 weeks
  TD50: 2690 mg/kg/day
rat, strain Charles River CD (Sprague-Dawley), males, in feed, site: kidney, lesion: tubule adenoma, dosed 104 weeks, study length 104 weeks
  TD50: 3810 mg/kg/day
rat, strain Charles River CD (Sprague-Dawley), males, in feed, site: kidney, lesion: tubule carcinoma, dosed 104 weeks, study length 104 weeks
  TD50: 11500 mg/kg/day
rat, strain Osborne-Mendel, females, in feed, site: adrenal gland, lesion: cortical adenoma + cortical carcinoma, dosed 80 weeks, study length 109 weeks
  TD50: 253 mg/kg/day (inactive)
rat, strain Osborne-Mendel, females, in feed, site: any site (literature study), lesion: several types, types named in the paper, dosed 80 weeks, study length 113 weeks
  carcinogen call: negative (inactive)
rat, strain Osborne-Mendel, males, in feed, site: any site (literature study), lesion: several types, types named in the paper, dosed 80 weeks, study length 113 weeks
  TD50: 4780 mg/kg/day (inactive)
rat, strain Wistar, females, in feed, site: uterus, lesion: sarcoma, dosed 130 weeks, study length 130 weeks
  TD50: 1700 mg/kg/day

## CCCCCCCC/C=C\CCCCCCCC(=O)O
rat, strain F344/DuCrj, females, in drinking water, site: any site (literature study), lesion: several types, types named in the paper, dosed 108 weeks, study length 108 weeks
  carcinogen call: negative (inactive)
rat, strain F344/DuCrj, females, in drinking water, site: liver, lesion: hyperplastic nodule, dosed 108 weeks, study length 108 weeks
  carcinogen call: negative (inactive)
rat, strain F344/DuCrj, males, in drinking water, site: any site (literature study), lesion: several types, types named in the paper, dosed 108 weeks, study length 108 weeks
  carcinogen call: negative (inactive)
rat, strain F344/DuCrj, males, in drinking water, site: liver, lesion: hyperplastic nodule, dosed 108 weeks, study length 108 weeks
  TD50: 29100 mg/kg/day (inactive)
rat, strain F344/DuCrj, males, in drinking water, site: liver, lesion: several types, types named in the paper, dosed 108 weeks, study length 108 weeks
  TD50: 39300 mg/kg/day (inactive)
rat, strain F344/DuCrj, males, in drinking water, site: pancreas, lesion: insuloma, dosed 108 weeks, study length 108 weeks
  TD50: 12600 mg/kg/day (inactive)
rat, strain F344/DuCrj, males, in drinking water, site: pancreas, lesion: several types, types named in the paper, dosed 108 weeks, study length 108 weeks
  TD50: 10100 mg/kg/day (inactive)

## CN(C)P(=O)(N(C)C)N(C)C
rat, strain Charles River CD (Sprague-Dawley), both sexes, inhaled, site: nasal cavity, adenoid, lesion: squamous-cell carcinoma, dosed 53 weeks, study length 104 weeks
  TD50: 0.519 mg/kg/day
rat, strain Charles River CD (Sprague-Dawley), both sexes, inhaled, site: nasal cavity, adenoid, lesion: squamous-cell carcinoma, dosed 72 weeks, study length 104 weeks
  TD50: 0.608 mg/kg/day
rat, strain Charles River CD (Sprague-Dawley), both sexes, inhaled, site: nasal cavity, lesion: epidermoid carcinoma, dosed 53 weeks, study length 104 weeks
  TD50: 0.0581 mg/kg/day
rat, strain Charles River CD (Sprague-Dawley), both sexes, inhaled, site: nasal cavity, lesion: epidermoid carcinoma, dosed 72 weeks, study length 104 weeks
  TD50: 0.0456 mg/kg/day
rat, strain Charles River CD (Sprague-Dawley), both sexes, inhaled, site: nasal cavity, lesion: malignant tumor, dosed 53 weeks, study length 104 weeks
  TD50: 0.0416 mg/kg/day
rat, strain Charles River CD (Sprague-Dawley), both sexes, inhaled, site: nasal cavity, lesion: malignant tumor, dosed 72 weeks, study length 104 weeks
  TD50: 0.0387 mg/kg/day
rat, strain Charles River CD (Sprague-Dawley), both sexes, inhaled, site: nasal cavity, lesion: several types, types named in the paper, dosed 53 weeks, study length 104 weeks
  TD50: 0.0345 mg/kg/day
rat, strain Charles River CD (Sprague-Dawley), both sexes, inhaled, site: nasal cavity, lesion: several types, types named in the paper, dosed 72 weeks, study length 104 weeks
  TD50: 0.0344 mg/kg/day

## CC(=O)OC(OC(C)=O)c1ccc([N+](=O)[O-])o1
rat, strain Holtzman albino (Sprague-Dawley derived), females, in feed, site: mammary tissue, wider than the gland, lesion: one or several types, types not named, dosed 36 weeks, study length 54 weeks
  carcinogen call: negative (inactive)
rat, strain Holtzman albino (Sprague-Dawley derived), females, in feed, site: mammary tissue, wider than the gland, lesion: one or several types, types not named, dosed 44 weeks, study length 60 weeks
  TD50: 105 mg/kg/day (inactive)

## Nc1c(N=Nc2ccc([N+](=O)[O-])cc2)c(S(=O)(=O)O)cc2cc(S(=O)(=O)O)c(N=Nc3ccccc3)c(O)c12
rat, strain Not specified, females, in feed, site: any site (literature study), lesion: several types, types named in the paper, dosed 64 weeks, study length 64 weeks
  carcinogen call: negative (inactive)
rat, strain Not specified, females, in feed, site: liver, lesion: one or several types, types not named, dosed 64 weeks, study length 64 weeks
  carcinogen call: negative (inactive)
rat, strain Not specified, males, in feed, site: any site (literature study), lesion: several types, types named in the paper, dosed 64 weeks, study length 64 weeks
  carcinogen call: negative (inactive)
rat, strain Not specified, males, in feed, site: liver, lesion: one or several types, types not named, dosed 64 weeks, study length 64 weeks
  carcinogen call: negative (inactive)

## CCOC(=O)N(C)N=O
hamster, strain Syrian Golden, both sexes, by gavage, site: esophagus, lesion: epidermoid carcinoma, dosed 27 weeks, study length 73 weeks
  TD50: 0.127 mg/kg/day
hamster, strain Syrian Golden, both sexes, by gavage, site: forestomach, lesion: epidermoid carcinoma, dosed 27 weeks, study length 73 weeks
  carcinogen call: positive

## CNC(=O)c1c(N(C)N=O)ncn1C
rat, strain BD IX, both sexes, in drinking water, site: nasal cavity, olfactory epithelium, lesion: neuroepithelioma, dosed 73 weeks, study length 79 weeks
  TD50: 1.03 mg/kg/day
rat, strain BD IX, both sexes, in drinking water, site: nasal cavity, lesion: several types, types named in the paper, dosed 73 weeks, study length 79 weeks
  TD50: 1 mg/kg/day
rat, strain BD IX, both sexes, in drinking water, site: nasal cavity, lesion: squamous-cell carcinoma, dosed 73 weeks, study length 79 weeks
  TD50: 5.56 mg/kg/day

## CC(C)=NNc1nc(-c2ccc([N+](=O)[O-])o2)cs1
rat, strain Holtzman albino (Sprague-Dawley derived), females, in feed, site: forestomach, lesion: squamous-cell papilloma, dosed 36 weeks, study length 54 weeks
  TD50: 11 mg/kg/day
rat, strain Holtzman albino (Sprague-Dawley derived), females, in feed, site: forestomach, lesion: squamous-cell papilloma, dosed 44 weeks, study length 60 weeks
  TD50: 6.05 mg/kg/day

## CCCN(N=O)/C(N)=N/[N+](=O)[O-]
rat, strain Wistar, males, in drinking water, site: stomach, glandular, lesion: adenocarcinoma, dosed 52 weeks, study length 65 weeks
  TD50: 2.85 mg/kg/day
rat, strain Wistar, males, in drinking water, site: stomach, glandular, lesion: adenocarcinoma, dosed 52 weeks, study length 78 weeks
  TD50: 2.27 mg/kg/day
rat, strain Wistar, males, in drinking water, site: stomach, glandular, lesion: adenoma, dosed 34 weeks, study length 65 weeks
  TD50: 1.9 mg/kg/day
rat, strain Wistar, males, in drinking water, site: stomach, glandular, lesion: adenoma, dosed 52 weeks, study length 65 weeks
  TD50: 0.919 mg/kg/day
rat, strain Wistar, males, in drinking water, site: stomach, glandular, lesion: adenoma, dosed 52 weeks, study length 78 weeks
  TD50: 2.27 mg/kg/day

## FC(F)(F)C(Cl)Cl
rat, strain Charles River CD (Sprague-Dawley), females, inhaled, site: liver, lesion: cholangiofibroma, dosed 105 weeks, study length 105 weeks
  TD50: 22700 mg/kg/day
rat, strain Charles River CD (Sprague-Dawley), females, inhaled, site: liver, lesion: hepatocellular adenoma, dosed 105 weeks, study length 105 weeks
  TD50: 20300 mg/kg/day
rat, strain Charles River CD (Sprague-Dawley), females, inhaled, site: pancreas, lesion: acinar-cell adenoma, dosed 105 weeks, study length 105 weeks
  TD50: 92100 mg/kg/day
rat, strain Charles River CD (Sprague-Dawley), males, inhaled, site: liver, lesion: hepatocellular adenoma, dosed 105 weeks, study length 105 weeks
  TD50: 13100 mg/kg/day
rat, strain Charles River CD (Sprague-Dawley), males, inhaled, site: pancreas, lesion: acinar-cell adenoma, dosed 105 weeks, study length 105 weeks
  TD50: 1260 mg/kg/day
rat, strain Charles River CD (Sprague-Dawley), males, inhaled, site: pancreas, lesion: acinar-cell carcinoma, dosed 105 weeks, study length 105 weeks
  TD50: 60800 mg/kg/day
rat, strain Charles River CD (Sprague-Dawley), males, inhaled, site: testis, lesion: interstitial-cell adenoma, dosed 105 weeks, study length 105 weeks
  TD50: 9050 mg/kg/day

## O=C(O)Cc1c[nH]c2ccccc12
[1]
  carcinogen call: negative (inactive)
[2]
  carcinogen call: negative (inactive)
[3]
  carcinogen call: negative (inactive)
[4]
  carcinogen call: negative (inactive)
[5]
  carcinogen call: negative (inactive)
[6]
  carcinogen call: negative (inactive)
[7]
  TD50: 538 mg/kg/day (inactive)
[8]
  carcinogen call: negative (inactive)
mouse, strain B6C3F1, females, oral dosing, site: lung, lesion: adenoma, dosed 76 weeks, study length 76 weeks
  TD50: 538 mg/kg/day (inactive)
[9]
  TD50: 40.3 mg/kg/day (inactive)
[10]
  TD50: 113 mg/kg/day (inactive)
[11]
  TD50: 500 mg/kg/day (inactive)
